This experiment in a line: Reduction of food intake assay. In kind it is in vivo. The conditions noted are these: beagles, oral gavage, 0.1, 0.25 or 0.5 mg/kg, Days 0 to 6. On the procedure: Reduction of Food Intake Assay
Healthy, young adult (1-3 years of age) male and female beagles (Marshall Farms, North Rose, New York, N.Y. 14516) weighing 13-18 kg at the start of the treatment period are employed as test subjects.
The test compound is provided as a powder. The dosing solution, administered by oral gavage, is provided employing a 70/30 polyethylene glycol 400/water solution as the test vehicle. The dosing solution is prepared at 0.1 to 0.5 mg/ml activity so that 1 ml is delivered per kg body weight at dosages of 0.1 to 0.5 mg/kg. Following a seven day acclimation period, a ten day evaluation study is effected.
The study consists of three groups of animals containing 2 male and 2 female dogs, each. Each group of four animals is randomly assigned to receive 0.1, 0.25 or 0.5 mg/kg test compound. On Days 0 to 6, each dog receives the dosing solution administered as a single dose at Time 0 on each dosing day via a feeding tube. This is followed by a 10 ml water rinse to ensure total delivery of dosing solution. Each test animal is permitted ad libitum access to water and IAMS Mini-Chunks® (The Iams Company, P.O. Box 14597, Dayton, Ohio) dry food each day during the study and approximately 0.5-1 hours post-dose.

The text below walks through data of US20040132779A1, “Microsomal Triglyceride transfer protein inhibitor” (Pfizer Inc, priority 2002, published 2004).

In the case of `Cc1cc(CNC(=O)[C@@H](NC(=O)C(F)(F)F)c2ccccc2)ccc1NC(=O)c1ccccc1-c1ccc(C(F)(F)F)cc1` [Example 1A-1, (S) 4′-Trifluoromethyl-biphenyl-2-carboxylic Acid (2-methyl-4-{[2-phenyl-2-(2,2,2-trifluoro-acetylamino)-acetylamino]-methyl}-phenyl)-amide], the body weight entry was “reduction in body weight”, the fecal fat entry is recorded as “increased fecal fat”, the food intake result was “reduction in food intake” and the serum cholesterol result is reported as “reduction in serum cholesterol”.
